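GI50 is the concentration that inhibits growth by half. TGI marks complete inhibition of growth.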
Legend:
Experiment in all cases: DTP human tumour cell line panel, 384-well format
[1] = tested on: SW-620 colon
[2] = tested on: NCI-H460 NSCLC
[3] = tested on: K-562 leukemia
[4] = tested on: DU-145 prostate
[5] = tested on: CCRF-CEM leukemia
[6] = tested on: M14 melanoma
[7] = tested on: UACC-62 melanoma
[8] = tested on: RXF 393 renal
[9] = tested on: PC-3 prostate
[10] = tested on: HT29 colon
[11] = tested on: NCI-H226 lung
[12] = tested on: NCI-H23 lung
[13] = tested on: 786-0 renal
[14] = tested on: NCI-H522 lung
[15] = tested on: SF-295 CNS
[16] = tested on: CAKI-1 renal
[17] = tested on: BT-549 breast
[18] = tested on: EKVX NSCLC
[19] = tested on: NCI/ADR-RES ovarian
[20] = tested on: HL-60(TB) leukemia
[21] = tested on: SNB-75 CNS
[22] = tested on: NCI-H322M lung
[23] = tested on: ACHN renal
[24] = tested on: OVCAR-4 ovarian
[25] = tested on: RPMI-8226 leukemia
[26] = tested on: MDA-MB-468 breast
[27] = tested on: HS 578T breast
[28] = tested on: SK-OV-3 ovarian

Compound: C=CC(=O)N1C[C@H](COc2nc(Nc3cnn(C)c3)nc3[nH]cc(Cl)c23)[C@@H](OC)C1
- GI50 [1]: 673 nM
- TGI [1]: 2110 nM
- GI50 [2]: 1810 nM
- TGI [2]: 11600 nM
- GI50 [3]: 2140 nM
- TGI [3]: 12300 nM
- GI50 [4]: 2260 nM
- TGI [4]: > 100000 nM
- GI50 [5]: 242 nM
- TGI [5]: 544 nM
- GI50 [6]: 2170 nM
- TGI [6]: 18200 nM
- GI50 [7]: 912 nM
- TGI [7]: 13500 nM
- GI50 [8]: 5760 nM
- TGI [8]: 22300 nM
- GI50 [9]: 4530 nM
- TGI [9]: 20500 nM
- GI50 [10]: 4010 nM
- TGI [10]: > 100000 nM
- GI50 [11]: 394 nM
- TGI [11]: 9420 nM
- GI50 [12]: 1590 nM
- TGI [12]: 9360 nM
- GI50 [13]: 4840 nM
- TGI [13]: 41800 nM
- GI50 [14]: 281 nM
- TGI [14]: 858 nM
- GI50 [15]: 13300 nM
- TGI [15]: 31500 nM
- GI50 [16]: 1170 nM
- TGI [16]: 11900 nM
- GI50 [17]: 470 nM
- TGI [17]: 10300 nM
- GI50 [18]: 1310 nM
- TGI [18]: 7080 nM
- GI50 [19]: 29300 nM
- TGI [19]: > 100000 nM
- GI50 [20]: 408 nM
- TGI [20]: 1550 nM
- GI50 [21]: 467 nM
- TGI [21]: 1880 nM
- GI50 [22]: 1390 nM
- TGI [22]: 13800 nM
- GI50 [23]: 1940 nM
- TGI [23]: 15400 nM
- GI50 [24]: 1750 nM
- TGI [24]: 23600 nM
- GI50 [25]: 1000 nM
- TGI [25]: 3470 nM
- GI50 [26]: 267 nM
- TGI [26]: 628 nM
- GI50 [27]: 1370 nM
- TGI [27]: 4190 nM
- GI50 [28]: 556 nM

From PubChem BioAssay (NCI)
